US20200239530A1, “COMPOUNDS AND METHODS OF MODULATING PROTEIN DEGRADATION” (Vividion Therapeutics, Inc., priority 2017, published 2020)

How the values were obtained:
Assay in all cases: Cysteine liganding, probe competition
Assay type in all cases: binding
[1] = target: T1, HNRPLL Heterogeneous nuclear ribonucleoprotein L-like (Homo sapiens, UniProt Q8WVV9); conditions: HNRPLL Res# 464, uniprot Q8WVV9
T1 construct: Cells were resuspended in cold PBS on ice and sonicated with a probe sonicator to achieve lysis; endogenous in cells
Procedure, shortened: (§1)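 Lysates from probe-sonicated cells in PBS (5 mg/ml proteome) were exposed to compound for 1 hr at 25° C, then labelled with desthiobiotin iodoacetamide probe (10 mM stock) for 1 hr at 25° C. Probe-tagged peptides were streptavidin-enriched after trypsin digestion.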

[2] = target: T2, KEAP1 Kelch-like ECH-associated protein 1 (Homo sapiens, UniProt Q14145); conditions: KEAP1 Res# 288, uniprot Q14145
T2 construct: Cells were resuspended in cold PBS on ice and sonicated with a probe sonicator to achieve lysis; endogenous in cells
Procedure, shortened: as §1

[3] = target: T3, L3MBTL3 Lethal(3)malignant brain tumor-like protein 3 (Homo sapiens, UniProt Q96JM7); conditions: L3MBTL3 Res# 233, uniprot Q96JM7
T3 construct: Cells were resuspended in cold PBS on ice and sonicated with a probe sonicator to achieve lysis; endogenous in cells
Procedure, shortened: as §1

[4] = target: T4, RNF213 E3 ubiquitin-protein ligase RNF213 (Homo sapiens, UniProt Q63HN8)
T4 construct: Cells were resuspended in cold PBS on ice and sonicated with a probe sonicator to achieve lysis; endogenous in cells
T4 sequence (Q63HN8 whole entry): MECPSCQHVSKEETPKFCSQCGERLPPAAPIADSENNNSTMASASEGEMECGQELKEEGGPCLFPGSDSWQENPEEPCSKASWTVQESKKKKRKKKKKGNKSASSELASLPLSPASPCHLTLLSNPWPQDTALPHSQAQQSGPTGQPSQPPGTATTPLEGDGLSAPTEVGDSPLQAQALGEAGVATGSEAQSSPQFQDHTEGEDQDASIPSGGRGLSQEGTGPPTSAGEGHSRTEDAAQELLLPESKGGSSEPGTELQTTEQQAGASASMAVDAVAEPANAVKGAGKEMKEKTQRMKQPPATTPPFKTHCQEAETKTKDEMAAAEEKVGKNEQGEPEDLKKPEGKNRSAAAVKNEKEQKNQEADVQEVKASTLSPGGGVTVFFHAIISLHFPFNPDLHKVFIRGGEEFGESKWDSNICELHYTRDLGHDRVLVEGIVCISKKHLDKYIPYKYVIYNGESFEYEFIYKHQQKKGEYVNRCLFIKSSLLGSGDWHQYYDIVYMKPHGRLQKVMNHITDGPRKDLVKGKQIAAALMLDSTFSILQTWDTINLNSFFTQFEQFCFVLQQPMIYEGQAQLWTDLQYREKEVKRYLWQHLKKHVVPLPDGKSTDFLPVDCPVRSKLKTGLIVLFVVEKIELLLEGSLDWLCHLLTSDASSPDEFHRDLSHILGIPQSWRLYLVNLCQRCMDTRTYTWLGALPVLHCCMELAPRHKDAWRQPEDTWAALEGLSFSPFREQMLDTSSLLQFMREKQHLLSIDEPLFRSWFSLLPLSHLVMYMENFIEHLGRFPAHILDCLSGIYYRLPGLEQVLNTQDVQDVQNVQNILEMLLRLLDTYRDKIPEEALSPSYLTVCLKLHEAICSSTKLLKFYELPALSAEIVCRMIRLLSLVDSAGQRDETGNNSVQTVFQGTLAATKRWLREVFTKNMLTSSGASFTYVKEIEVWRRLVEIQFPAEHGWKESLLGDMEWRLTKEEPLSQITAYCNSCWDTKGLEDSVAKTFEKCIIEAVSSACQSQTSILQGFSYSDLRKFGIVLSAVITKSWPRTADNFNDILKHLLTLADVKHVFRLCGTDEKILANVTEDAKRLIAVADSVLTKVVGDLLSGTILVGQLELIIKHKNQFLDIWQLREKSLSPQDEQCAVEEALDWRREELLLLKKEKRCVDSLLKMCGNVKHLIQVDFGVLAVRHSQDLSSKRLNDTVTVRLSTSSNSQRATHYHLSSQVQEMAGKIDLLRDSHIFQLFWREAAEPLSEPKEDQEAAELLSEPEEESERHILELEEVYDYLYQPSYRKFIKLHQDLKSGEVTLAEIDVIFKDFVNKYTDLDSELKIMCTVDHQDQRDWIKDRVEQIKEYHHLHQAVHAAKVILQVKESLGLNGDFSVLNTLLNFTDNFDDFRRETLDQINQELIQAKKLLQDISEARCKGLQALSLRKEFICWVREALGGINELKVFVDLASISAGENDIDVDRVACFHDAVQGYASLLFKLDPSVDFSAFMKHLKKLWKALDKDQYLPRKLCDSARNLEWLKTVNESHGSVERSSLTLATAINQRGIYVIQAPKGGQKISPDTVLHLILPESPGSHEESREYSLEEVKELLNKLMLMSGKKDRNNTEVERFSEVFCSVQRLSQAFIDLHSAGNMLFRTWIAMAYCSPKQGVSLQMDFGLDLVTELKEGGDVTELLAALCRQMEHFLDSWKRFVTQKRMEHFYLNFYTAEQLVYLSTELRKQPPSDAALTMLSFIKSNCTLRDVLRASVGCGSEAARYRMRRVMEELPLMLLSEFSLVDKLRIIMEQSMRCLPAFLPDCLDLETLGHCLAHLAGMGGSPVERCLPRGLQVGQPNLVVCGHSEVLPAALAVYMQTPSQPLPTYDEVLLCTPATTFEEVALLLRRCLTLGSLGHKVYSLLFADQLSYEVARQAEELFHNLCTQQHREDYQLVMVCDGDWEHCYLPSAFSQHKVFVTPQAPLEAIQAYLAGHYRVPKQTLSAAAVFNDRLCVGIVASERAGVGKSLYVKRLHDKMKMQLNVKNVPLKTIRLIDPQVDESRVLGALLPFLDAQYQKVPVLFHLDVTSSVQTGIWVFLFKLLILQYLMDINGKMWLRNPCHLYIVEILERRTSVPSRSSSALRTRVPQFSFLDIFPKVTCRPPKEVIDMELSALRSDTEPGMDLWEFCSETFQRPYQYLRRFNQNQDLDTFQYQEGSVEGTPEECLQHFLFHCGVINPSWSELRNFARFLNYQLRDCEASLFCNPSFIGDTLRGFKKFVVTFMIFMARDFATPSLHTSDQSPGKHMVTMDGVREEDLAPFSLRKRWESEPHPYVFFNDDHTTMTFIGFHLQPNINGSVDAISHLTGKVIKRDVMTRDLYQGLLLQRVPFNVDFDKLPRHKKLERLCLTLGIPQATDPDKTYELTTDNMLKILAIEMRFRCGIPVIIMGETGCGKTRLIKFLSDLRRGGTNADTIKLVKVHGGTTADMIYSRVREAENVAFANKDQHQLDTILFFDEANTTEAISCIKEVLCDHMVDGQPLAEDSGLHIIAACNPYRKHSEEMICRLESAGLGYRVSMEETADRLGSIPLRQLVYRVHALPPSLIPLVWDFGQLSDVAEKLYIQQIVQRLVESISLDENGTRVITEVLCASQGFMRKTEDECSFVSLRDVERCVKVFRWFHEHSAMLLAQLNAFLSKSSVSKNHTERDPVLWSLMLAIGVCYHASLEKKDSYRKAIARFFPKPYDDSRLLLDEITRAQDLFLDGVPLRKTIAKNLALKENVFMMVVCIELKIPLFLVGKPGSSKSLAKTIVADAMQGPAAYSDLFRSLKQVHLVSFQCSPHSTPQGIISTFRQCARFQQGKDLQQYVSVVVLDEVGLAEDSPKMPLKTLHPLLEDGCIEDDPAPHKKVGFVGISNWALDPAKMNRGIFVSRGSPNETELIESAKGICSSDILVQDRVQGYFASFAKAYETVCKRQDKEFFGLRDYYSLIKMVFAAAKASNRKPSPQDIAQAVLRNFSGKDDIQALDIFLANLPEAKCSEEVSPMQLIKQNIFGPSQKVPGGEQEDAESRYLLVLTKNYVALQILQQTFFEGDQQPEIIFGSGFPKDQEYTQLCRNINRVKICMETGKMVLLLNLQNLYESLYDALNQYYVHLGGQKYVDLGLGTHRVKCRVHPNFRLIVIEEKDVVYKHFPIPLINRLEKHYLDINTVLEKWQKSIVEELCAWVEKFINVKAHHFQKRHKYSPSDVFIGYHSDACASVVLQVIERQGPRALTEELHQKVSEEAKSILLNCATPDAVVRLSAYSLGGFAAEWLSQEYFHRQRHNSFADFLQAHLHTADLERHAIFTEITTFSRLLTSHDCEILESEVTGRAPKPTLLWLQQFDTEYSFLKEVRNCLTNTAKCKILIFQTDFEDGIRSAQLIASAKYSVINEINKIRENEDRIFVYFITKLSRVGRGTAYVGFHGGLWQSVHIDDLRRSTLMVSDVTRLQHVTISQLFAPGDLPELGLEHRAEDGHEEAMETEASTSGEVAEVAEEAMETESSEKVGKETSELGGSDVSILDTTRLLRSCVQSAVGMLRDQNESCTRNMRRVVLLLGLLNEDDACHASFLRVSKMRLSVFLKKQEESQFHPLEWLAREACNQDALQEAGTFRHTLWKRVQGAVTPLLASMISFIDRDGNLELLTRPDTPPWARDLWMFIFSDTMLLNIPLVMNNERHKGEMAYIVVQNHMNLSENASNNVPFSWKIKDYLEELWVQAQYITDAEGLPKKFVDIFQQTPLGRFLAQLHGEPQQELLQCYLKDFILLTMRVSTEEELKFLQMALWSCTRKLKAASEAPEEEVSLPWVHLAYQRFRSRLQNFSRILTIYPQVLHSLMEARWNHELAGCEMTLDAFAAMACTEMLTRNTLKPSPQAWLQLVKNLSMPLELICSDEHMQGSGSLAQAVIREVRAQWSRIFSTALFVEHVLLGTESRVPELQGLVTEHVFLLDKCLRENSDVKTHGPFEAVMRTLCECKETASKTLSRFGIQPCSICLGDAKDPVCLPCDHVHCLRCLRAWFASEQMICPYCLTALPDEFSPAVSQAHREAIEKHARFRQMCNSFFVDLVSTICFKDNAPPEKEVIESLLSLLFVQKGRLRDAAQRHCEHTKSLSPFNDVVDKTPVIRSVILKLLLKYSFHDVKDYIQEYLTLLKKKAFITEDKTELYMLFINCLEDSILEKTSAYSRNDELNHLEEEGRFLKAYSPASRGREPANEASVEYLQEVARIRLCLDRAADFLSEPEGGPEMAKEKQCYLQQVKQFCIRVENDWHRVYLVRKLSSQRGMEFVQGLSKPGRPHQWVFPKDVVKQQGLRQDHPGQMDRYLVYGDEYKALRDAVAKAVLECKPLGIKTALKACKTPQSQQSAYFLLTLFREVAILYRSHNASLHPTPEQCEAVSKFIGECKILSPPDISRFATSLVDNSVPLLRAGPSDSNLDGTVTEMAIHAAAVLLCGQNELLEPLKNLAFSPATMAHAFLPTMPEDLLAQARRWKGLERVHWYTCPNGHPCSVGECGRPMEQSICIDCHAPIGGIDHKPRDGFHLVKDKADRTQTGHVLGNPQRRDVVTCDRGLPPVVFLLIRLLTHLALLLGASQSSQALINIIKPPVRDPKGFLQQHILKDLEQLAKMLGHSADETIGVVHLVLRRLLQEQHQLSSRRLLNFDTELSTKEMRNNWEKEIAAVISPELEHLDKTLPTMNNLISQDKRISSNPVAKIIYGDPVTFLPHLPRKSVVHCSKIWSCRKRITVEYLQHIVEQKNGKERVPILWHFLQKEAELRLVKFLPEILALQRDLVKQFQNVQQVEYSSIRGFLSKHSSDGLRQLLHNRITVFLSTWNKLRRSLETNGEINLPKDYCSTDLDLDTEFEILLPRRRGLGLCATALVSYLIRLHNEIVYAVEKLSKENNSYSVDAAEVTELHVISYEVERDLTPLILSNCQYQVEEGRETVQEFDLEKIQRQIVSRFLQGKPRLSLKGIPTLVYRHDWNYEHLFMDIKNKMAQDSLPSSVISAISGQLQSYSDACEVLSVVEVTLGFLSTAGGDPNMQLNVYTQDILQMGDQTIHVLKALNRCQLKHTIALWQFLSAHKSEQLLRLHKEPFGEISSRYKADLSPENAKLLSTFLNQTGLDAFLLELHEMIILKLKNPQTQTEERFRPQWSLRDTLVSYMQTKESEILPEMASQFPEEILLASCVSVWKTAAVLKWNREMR
Procedure, shortened: as §1

[5] = target: T5, SPAG5 Sperm-associated antigen 5 (Homo sapiens, UniProt Q96R06); conditions: SPAG5 Res# 382, uniprot Q96R06
T5 construct: Cells were resuspended in cold PBS on ice and sonicated with a probe sonicator to achieve lysis; endogenous in cells
Procedure, shortened: as §1

[6] = target: T6, VDAC2 Voltage-dependent anion-selective channel protein (Homo sapiens, UniProt P45880)
T6 construct: Cells were resuspended in cold PBS on ice and sonicated with a probe sonicator to achieve lysis; endogenous in cells
Procedure, shortened: as §1

[7] = target: T7, ZC3HC1 Nuclear-interacting partner of ALK (Homo sapiens, UniProt Q86WB0); conditions: ZC3HC1 Res# 406, uniprot Q86WB0
T7 construct: Cells were resuspended in cold PBS on ice and sonicated with a probe sonicator to achieve lysis; endogenous in cells
Procedure, shortened: as §1

FDFT1 Squalene synthase = target: T8, FDFT1 Squalene synthase (Homo sapiens, UniProt P37268)
T8 construct: 200 μL of lysate containing 5 mg/ml proteome was treated with 2 μL of 100× compound stock; endogenous in cells
T8 sequence (P37268 1-417): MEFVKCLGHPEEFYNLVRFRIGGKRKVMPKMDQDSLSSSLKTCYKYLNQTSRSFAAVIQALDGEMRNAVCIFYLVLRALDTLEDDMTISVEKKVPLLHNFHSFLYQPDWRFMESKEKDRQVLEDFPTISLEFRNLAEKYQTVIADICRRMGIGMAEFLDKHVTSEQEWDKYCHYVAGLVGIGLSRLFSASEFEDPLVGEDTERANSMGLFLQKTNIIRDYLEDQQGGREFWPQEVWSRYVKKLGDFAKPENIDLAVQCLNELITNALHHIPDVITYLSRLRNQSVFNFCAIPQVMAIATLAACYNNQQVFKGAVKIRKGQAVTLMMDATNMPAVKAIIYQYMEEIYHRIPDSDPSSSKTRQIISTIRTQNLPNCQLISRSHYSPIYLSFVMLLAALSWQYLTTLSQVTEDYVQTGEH
Procedure, shortened: as §1

[8] = target: T9, INTS1 Integrator complex subunit 1 (Homo sapiens, UniProt Q8N201)
T9 construct: Cells were resuspended in cold PBS on ice and sonicated with a probe sonicator to achieve lysis; endogenous in cells
Procedure, shortened: as §1

| Structure (SMILES) | Liganded [1] | Liganded [2] | Liganded [3] | Liganded ([4]; RNF213 Res# 1510, uniprot Q63HN8) | Liganded ([4]; RNF213 Res# 4258, uniprot Q63HN8) | Liganded ([4]; RNF213 Res# 4407, uniprot Q63HN8) | Liganded [5] | Liganded ([6]; VDAC2 Res# 210, uniprot P45880) | Liganded ([6]; VDAC2 Res# 227, uniprot P45880) | Liganded [7] | Liganded (FDFT1 Squalene synthase; FDFT1 Res# 6, uniprot P37268) | 100 Max (FDFT1 Squalene synthase; uniprot P37268) | 100 ave (FDFT1 Squalene synthase; uniprot P37268) | 500 Max (FDFT1 Squalene synthase; uniprot P37268) | 500 ave (FDFT1 Squalene synthase; uniprot P37268) | Liganded ([8]; INTS1 Res# 1534, uniprot Q8N201) | 100 Max ([8]; uniprot Q8N201) | 100 ave ([8]; uniprot Q8N201) | 500 Max ([8]; uniprot Q8N201) | 500 ave ([8]; uniprot Q8N201) |
| --- | --- | --- | --- | --- | --- | --- | --- | --- | --- | --- | --- | --- | --- | --- | --- | --- | --- | --- | --- | --- |
| COc1ccc2c(c1)CCCN2C(=O)CCl [KB02] | YES | YES | YES | YES | YES | YES | YES | YES | YES | YES |  |  |  |  |  |  |  |  |  |  |
| O=C(CCl)Nc1cc(C(F)(F)F)cc(C(F)(F)F)c1 [KBO3] |  |  |  |  |  |  |  |  |  |  | YES | 59.08 | 37.7 | 82.93 | 82.93 | YES | 51.25 | 36.495 | 77.65 | 70.05 |
